Test results as given in publication PMC7429318 (Journal of controlled release : official journal of the …, 2020).

Tested on: MDCKII cells
Assay: Transwell permeability assay across MDCKII monolayer
Format: in vitro ADME, canine
Conditions: transwell (2D), LY 100 μM

Lucifer yellow CH-lithium salt [LY] was tested, and the “permeability in transwell assay (2D)” value was “about 3 × 10^−7 cm s^−1”.
